Measurements reported in PMC8815882, “Screening the pandemic response box identified benzimidazole carbamates, Olorofim and ravuconazole as promising drug candidates for the treatment of eumycetoma” (PLoS Neglected Tropical Diseases, 2022).
Like-named read-outs stand apart in the source and are kept apart here. Peptide text beside a SMILES is read from it.

Tested on: M. mycetomatis genome strain MM55
Test: CLSI M38-A2 based in vitro susceptibility screening (XTT or resazurin), growth at fixed concentration
Format: cell-based, Madurella mycetomatis
Conditions: for activity at 25 µM / activity at 100 µM / Percent fungal survival at 100 µM: Madurella mycetomatis; for Percent fungal survival at 100 µM: read-out: Percentage survival at 100um, 100 uM A (second replicate column)
[1] = 25 uM, replicate A, read-out: Percentage survival at 25um, 25 um A
[2] = 25 uM, replicate B, read-out: Percentage survival at 25um, 25 uM B
[3] = 25 uM, replicate C, read-out: Percentage survival at 25um, 25 uM C
[4] = 25 uM, mean of three replicates, read-out: Percentage survival at 25um, 25 uM mean
[5] = 100 uM, mean of three replicates, read-out: Percentage survival at 100um, 100 uM mean
[6] = 100 uM, replicate 1, read-out: Percentage survival at 100um, 100 uM A (first replicate column)
[7] = 100 uM, replicate 3, read-out: Percentage survival at 100um, 100 uM A (third replicate column)
[8] = 25 uM, mean, read-out: Percentage survival at 25um, 25 uM mean
[9] = 100 uM, mean, read-out: Percentage survival at 100um, 100 uM mean
[10] = 100 uM, replicate (first column), read-out: Percentage survival at 100um, 100 uM A
[11] = 100 uM, replicate (second column), read-out: Percentage survival at 100um, 100 uM A
[12] = 100 uM, replicate (third column), read-out: Percentage survival at 100um, 100 uM A
[13] = 100 uM, first replicate column, read-out: Percentage survival at 100um, 100 uM A
[14] = 100 uM, second replicate column, read-out: Percentage survival at 100um, 100 uM A
[15] = 100 uM, third replicate column, read-out: Percentage survival at 100um, 100 uM A
[16] = 25 uM, mean of replicates, MM55, read-out: Percentage survival at 25um, 25 uM mean
[17] = 25 uM, replicate A, MM55, read-out: Percentage survival at 25um, 25 um A
[18] = 25 uM, replicate B, MM55, read-out: Percentage survival at 25um, 25 uM B
[19] = 25 uM, replicate C, MM55, read-out: Percentage survival at 25um, 25 uM C
[20] = 100 uM, mean of replicates, MM55, read-out: Percentage survival at 100um, 100 uM mean
[21] = 100 uM, replicate 1, MM55, read-out: Percentage survival at 100um, 100 uM A
[22] = 100 uM, replicate 2, MM55, read-out: Percentage survival at 100um, 100 uM A
[23] = 100 uM, replicate 3, MM55, read-out: Percentage survival at 100um, 100 uM A

Work on `COc1cc(Cc2cc(N)nc(N)n2)cc(OC)c1OC` [MMV1579846] yielded an activity at 25 µM (25 uM, mean of replicates, read-out: Percentage survival at 25um, 25 uM mean) of 80.9%, an activity at 25 µM [1] of 87.9% and an activity at 25 µM [2] of 75.2%. For the same compound, the activity at 25 µM [3] was 79.5%, the activity at 100 µM (100 uM, mean of replicates, read-out: Percentage survival at 100um, 100 uM mean) was 95.4% and the activity at 100 µM (100 uM, replicate 1, read-out: Percentage survival at 100um, 100 uM A) was 83.5%. For the same compound, the activity at 100 µM (100 uM, replicate 2, read-out: Percentage survival at 100um, 100 uM A) was 94.2% and the activity at 100 µM (100 uM, replicate 3, read-out: Percentage survival at 100um, 100 uM A) was 108%.

`Cc1ccn2c(C(=O)NCc3ccccc3)c(C)nc2c1` [MMV1579847] gave an activity at 25 µM [4] of 82.9%, an activity at 25 µM [1] of 90.2% and an activity at 25 µM [2] of 66.1%. The activity at 25 µM [3] was 92.5%, the activity at 100 µM [5] was 61.9% and the activity at 100 µM [6] was 72.5%. The Percent fungal survival at 100 µM (100 uM, replicate 2) was 55.8% and the activity at 100 µM [7] was 57.5%.

In the case of `CC(N)C(=O)NC(CCCCN)C(=O)NC(CCCNC(=N)N)C(=O)NC(Cc1c[nH]cn1)C(=O)NC(Cc1c[nH]cn1)C(=O)NCC(=O)NC(Cc1ccc(O)cc1)C(=O)NC(CCCCN)C(=O)NC(CCCNC(=N)N)C(=O)NC(CCCCN)C(=O)NC(Cc1ccccc1)C(=O)NC(Cc1c[nH]cn1)C(N)=O` (centres unmarked) [MMV1579849] (H-AKRHHGYKRKFH-NH2; configuration not given here), the “Percentage survival at 25um, 25 uM mean” value (25 uM, mean of three, M. mycetomatis MM55) is reported as 88.4824%, the “Percentage survival at 25um, 25 um A” value (25 uM, replicate A, M. mycetomatis MM55) is reported as 86.8656% and the “Percentage survival at 25um, 25 uM B” value (25 uM, replicate B, M. mycetomatis MM55) is reported as 93.5744%. The “Percentage survival at 25um, 25 uM C” value (25 uM, replicate C, M. mycetomatis MM55) was 85.0073%, the “Percentage survival at 100um, 100 uM mean” value (100 uM, mean of three, M. mycetomatis MM55) was 95.7644% and the “Percentage survival at 100um, 100 uM A (first replicate column)” value (100 uM, replicate 1, M. mycetomatis MM55) was 92.1348%. For the same compound, the “Percentage survival at 100um, 100 uM A (second replicate column)” value (100 uM, replicate 2, M. mycetomatis MM55) was 102.447% and the “Percentage survival at 100um, 100 uM A (third replicate column)” value (100 uM, replicate 3, M. mycetomatis MM55) was 92.7112%.

`N[C@@H]1CN(c2c(F)cc3c(=O)c(C(=O)O)cn([C@@H]4C[C@@H]4F)c3c2Cl)CC12CC2` [MMV1579850] showed an activity at 25 µM [4] of 85.6%, an activity at 25 µM [1] of 82.4% and an activity at 25 µM [2] of 85.7%. For the same compound, the activity at 25 µM [3] was 88.6%, the activity at 100 µM [5] was 83.7% and the activity at 100 µM [6] was 86.1%. It also gave a Percent fungal survival at 100 µM (100 uM, replicate 2) of 82.9% and an activity at 100 µM [7] of 82%.

In the case of `O=C(O)c1ccccc1Sc1ncnc2sc3c(c12)CCC3` [MMV1579878], the activity at 25 µM [8] is reported as 83.5%, the activity at 25 µM [1] is reported as 89.3% and the activity at 25 µM [2] is reported as 87%. The activity at 25 µM [3] was 74.1%, the activity at 100 µM [9] was 57% and the activity at 100 µM [10] was 1.56%. It also gave an activity at 100 µM [11] of 73.3% and an activity at 100 µM [12] of 96.2%.

`COc1cc(NCc2ccc3nc(N)nc(N)c3c2C)cc(OC)c1OC` [MMV1580173] gave an activity at 25 µM [8] of 73.6%, an activity at 25 µM [1] of 96.5% and an activity at 25 µM [2] of 46.2%. For the same compound, the activity at 25 µM [3] was 78.3%, the activity at 100 µM [9] was 55.4% and the activity at 100 µM [10] was 74.1%. It also gave an activity at 100 µM [11] of 4.19% and an activity at 100 µM [12] of 88%.

Work on `C[C@H](Cn1cnc2c(N)ncnc21)OCP(=O)(O)O` [MMV1580478] yielded an activity at 25 µM [4] of 99.2%, an activity at 25 µM [1] of 98.1% and an activity at 25 µM [2] of 110%. It also gave an activity at 25 µM [3] of 89.5%, an activity at 100 µM [13] of 94.5% and an activity at 100 µM [5] of 89%. For the same compound, the activity at 100 µM [14] was 87.6% and the activity at 100 µM [15] was 84.8%.

`CN(C)CC(=O)Nc1ccc2[nH]c(=O)c3ccccc3c2c1` [MMV1580480] was tested, and the activity at 25 µM [16] was 94.3%, the activity at 25 µM [17] was 106% and the activity at 25 µM [18] was 107%. The activity at 25 µM [19] was 70.4%, the activity at 100 µM [20] was 76.4% and the activity at 100 µM [21] was 87.1%. The activity at 100 µM [22] was 63.4% and the activity at 100 µM [23] was 78.7%.

Work on `COc1ccccc1NC(=O)c1ccccc1Sc1ccc([N+](=O)[O-])cc1` [MMV1580484] yielded an activity at 25 µM [4] of 65.2%, an activity at 25 µM [1] of 65.9% and an activity at 25 µM [2] of 69.7%. The activity at 25 µM [3] was 60.2%, the activity at 100 µM [13] was 60.9% and the activity at 100 µM [5] was 60.4%. For the same compound, the activity at 100 µM [14] was 56% and the activity at 100 µM [15] was 64.4%.

`COc1ccc(OCc2ccc(COc3c(Cl)cccc3Cl)cc2)c(Cl)c1` [MMV1580485] showed an activity at 25 µM [16] of 89.3%, an activity at 25 µM [17] of 92.6% and an activity at 25 µM [18] of 89.4%. It also gave an activity at 25 µM [19] of 85.7%, an activity at 100 µM [20] of 77.9% and an activity at 100 µM [21] of 89.9%. The activity at 100 µM [22] was 70.7% and the activity at 100 µM [23] was 73.2%.
